Results reported in US8084459B2, “Substituted quinazolinones for treating neurological conditions” (Prana Biotechnology Ltd, priority 2004, dated 2011).
Structures can show the parent of a compound that is named as a salt.

How the values were obtained:
Aβ 1-42 = target: T1, Aβ 1-42 (Homo sapiens, UniProt P05067); test: Assay 1 Fluorometric H2O2 assay (peroxide); format: biochemical; conditions: inhibition of H2O2 generation by Aβ with copper
T1 construct: The reaction solutions contained Aβ 1-42 at concentrations
Procedure: Assay 1. Fluorometric H2O2 Assay
A fluorometric assay was used to test the ability of a test compound to inhibit hydrogen peroxide generation by Aβ in the presence of copper based on dichlorofluoroscein diacetate (DCF; Molecular Probes, Eugene Oreg.). The DCF solution (5 mM) in 100% dimethyl sulphoxide (previously purged with argon for 1 hr at 20° C.) was deacetylated in the presence of 0.025M NaOH for 30 min and neutralised at pH 7.4 to a final concentration of 1 mM. Horseradish peroxidase (HRP) stock solution was prepared to 1 μM at pH 7.4. The reactions were carried out in PBS, pH 7.4 in a 96 well plate (total volume=250 μl/well). The reaction solutions contained Aβ 1-42 at concentrations in the range of 50 nM to 1 μM, copper-glycine chelate (Cu-Gly), was prepared by adding CuCl2 to glycine in the ratio of 1:6 and added to the Aβ in the proportion 2Cu-Gly:1Aβ), reducing agents including dopamine (5 μM) or ascorbic acid, deacetylated DCF 100 μM, and HRP, 0.1 μM. 1-10 μM EDTA or another chelator may also be present as a control for free copper, but was not required for the assay to function. The reaction mixture was incubated at 37 C for 60 min. Catalase (4000 units/ml) and H2O2 (1-2.5 μM) standards in PBS pH 7.4 may be included as positive controls. Fluorescence was recorded using a plate reader with excitation and emission filters at […] respectively. H2O2 concentration may be established by comparing fluorescence with the H2O2 standards. Inhibition of Aβ H2O2 production was assayed by including a given concentration of test compound(s) in the test wells.

[1] = Assay 3(d) test compound cytotoxicity (MTS); format: cell-based; conditions: BL6Jx129sv, mouse, primary cortical neuronal cultures, cortical neurons; for viability at 4 days, 1 µM: read-out: Assay 3(d) Cytotoxicity (% viable at 1 uM); for viability at 4 days, 10 µM: read-out: Assay 3(d) Cytotoxicity (% viable at 10 uM)
Procedure: Primary Cortical Neuronal Cultures
Cortical cultures were prepared as previously described (White et al., 1998). Embryonic day 14 BL6Jx129sv mouse cortices were removed, dissected free of meninges and dissociated in 0.025% (wt/vol) trypsin. Dissociated cells were plated in 48 well culture plates at a density of 2×10^6 cells/mL in MEM with 25% (vol/vol) FCS and 5% (vol/vol) HS and incubated at 37° C., 2 hrs. Media was then replaced with Neurobasal media (Invitrogen Life Technologies) and B27 supplements (Invitrogen Life Technologies). Cultures were maintained at 37° C. in 5% CO2. Prior to experimentation, the culture medium was replaced with Neurobasal media and B27 minus antioxidants (Invitrogen Life Technologies).
(a) MTS Assay for Cell Viability
Cell viability is determined using the MTS assay. Culture medium is replaced with fresh neurobasal medium plus B27 supplements minus antioxidants. 1/10 volume MTS solution (Cell Titre 96 Aqueous One, Promega Corporation) and incubated at 37° C., 2 hrs. 200 microlitre aliquots are measured with a spectrophotometer at 560 nm.
(d) Assay for Test Compound Cytoxicity
Neuronal cortical cells were cultured for five days as per Assay 2 in NB media and B27 supplement.
On day six the test compounds were added to the neuronal cell cultures in NB media and B27 supplement minus antioxidants.
Test compounds were dissolved in 100% DMSO to a concentration of 2.5 mM (10 mM if excess compound was weighed out per vial—then diluted to 2.5 mM). 2.5 mM stock solution was serially diluted 1 in 10 to give working solutions of 250 uM, 25 uM, 2.5 uM. Test compounds were not added directly to cells, instead they were added to a 48 well ‘Drug Plate’ as comprised below:
Preparation of “Drug Plate”:
• Well 1: 576 ul NB+B27 (no antioxidant)*+24 ul 2.5 uM test compound • Well 2: 576 ul NB+B27 (no antioxidant)+24 ul 25 uM test compound • Well 3: 576 ul NB+B27 (no antioxidant)+24 ul 250 uM test compound • Well 4: 576 ul NB+B27 (no antioxidant)+24 ul 2.5 uM test compound • Well 5: 576 ul NB+B27 (no antioxidant)+24 ul 25 uM test compound • Well 6: 576 ul NB+B27 (no antioxidant)+24 ul 250 uM test compound • Well 7: 576 ul NB+B27 (no antioxidant)+24 ul test compound diluent** • Well 8: 600 ul NB+B27 (no antioxidant)
The Drug Plate was incubated at 37° C. for 15 mins. 200 ul of each well was added in triplicate to the corresponding cell plate. The cell plate was incubated at 37° C., for 4 days, (2 compounds are tested on each plate of cells).
* NB media and B27 (no antioxidants),
** PBT diluent 10% DMSO in NB+B27 (no antioxidants)
On completion of the assay, 1/10 volume MTS was added per well of plate (ie 25 ul/250 ul). The plates were incubated at 37° C. for 2 hrs, and then absorbance was read at 560 nm.

[2] = Assay 16 mouse plasma levels of test compounds; format: in vivo; conditions: highest level found in mice (Up to); oral dosing 30 mg/kg described for PB 1075-1077
Procedure: Assay 16. Determination of Mouse Plasma Levels of Test Compounds PB 1075
(§1) Oral administration of PB 1075 at 30 mg/kg, as a suspension in Na-Carboxymethyl Cellulose (CMC) was administered by oral gavage to four mice. Two mice were sacrificed 30 minutes after administration and two mice were sacrificed 60 minutes after administration. Blood was obtained by cardiac puncture and plasma separated by centrifugation.
The concentration of PB 1075 was determined by LC/MS using the triple quadrupole instrument. The mobile phase consisted of an acetonitrile (ACN)/water gradient (containing 0.05% Formic acid) and the column was a Phenomenex Lunea 5 um C8 (50×2 mm) column.
The supplied acute toxicity mouse plasma samples were directly injected following a protein precipitation with ACN. The analytical method in plasma was linear in the range of 10 to 10,000 ng/ml (R^2=0.994). Recovery of PB 1075 from plasma was ˜100%.
as §1, with “1076” for “1075”
The concentration of PB 1076 was determined by LC/MS using the triple quadrupole instrument. The mobile phase consisted of an acetonitrile (ACN)/water gradient (containing 0.05% Formic acid) and the column was a Phenomenex Luna 5 μM C8 (50×2 mm) column.
The mouse plasma samples were directly injected following a protein precipitation with ACN. The analytical method in plasma was linear in the range of 500 to 10,000 ng/ml (R^2=0.999). Recovery of PB 1076 from plasma was ˜85%.
as §1, with “1077” for “1075”
The concentration of PB 1077 was determined by LC/MS using the triple quadrupole instrument. The mobile phase consisted of an acetonitrile (ACN)/water gradient (containing 0.05% Formic acid) and the column was a Phenomenex Luna 5 μM C8 (50×2 mm) column.
The mouse plasma samples were directly injected following a protein precipitation with ACN. The analytical method in plasma was linear in the range of 5 to 5,000 ng/ml (R^2=0.999). Recovery of PB 1077 from plasma was ˜92%.

T1 sequence (P05067 672-713 limits assumed): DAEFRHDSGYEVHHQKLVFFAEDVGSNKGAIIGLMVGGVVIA

| SMILES | IC50 (Aβ 1-42) | Assay 16 Mice plasma concentration [2] | viability at 4 days, 1 µM [1] | viability at 4 days, 10 µM [1] |
| --- | --- | --- | --- | --- |
| CN1CCCC1CCn1cnc2c(O)c(Cl)cc(Cl)c2c1=O (centres unmarked) [Compound 1078] | 730 nM | Up to 262 ng/mL in | 94% | 94% |
| O=c1c2c(Cl)cc(Cl)c(O)c2ncn1N1CCCCC1 [Compound 1086] | 390 nM |  | 98% | 51% |
| Br.CC(C)Cn1cnc2c(O)c(Cl)cc(Cl)c2c1=O [Compound 1107] | 400 nM |  | 92% | 59% |
| Br.CC(C)n1cnc2c(O)c(Cl)cc(Cl)c2c1=O [Compound 1108] | 250 nM |  | 100% | 53% |
| CCN(CC)CCn1cnc2c(O)c(Cl)cc(Cl)c2c1=O [Compound 1110] | 460 nM |  |  | 77% |
| CCCCn1cnc2c(O)c(Cl)cc(Cl)c2c1=O [Compound 1111] | 320 nM |  | 93% | 67% |
| Br.CCC(C)n1cnc2c(O)c(Cl)cc(Cl)c2c1=O (centres unmarked) [Compound 1112] | 330 nM | Upto 2949 ng/mL in | 89% | 46% |
| CC(Br)CCn1cnc2c(O)c(Cl)cc(Cl)c2c1=O (centres unmarked) [Compound 1114] | 580 nM |  |  | 73% |
| C/C=C/Cn1cnc2c(O)c(Cl)cc(Cl)c2c1=O [Compound 1126] | 370 nM |  |  |  |
| CCn1cnc2c(O)ccc(Cl)c2c1=O [Compound 1130] | 880 nM |  |  |  |
| CCCn1cnc2c(O)ccc(Cl)c2c1=O [Compound 1131] | 500 nM |  |  |  |
| CN(C)Cc1nc2c(O)c(Cl)cc(Cl)c2c(=O)[nH]1 [Compound 1147] | 260 nM |  |  |  |
| CNCc1nc2c(O)c(Cl)cc(Cl)c2c(=O)n1C [Compound 1161] | 140 nM |  |  |  |

Now from value to molecule, other results behind:

| IC50 (Aβ 1-42) | Assay 16 Mice plasma concentration [2] | SMILES | viability at 4 days, 1 µM [1] | viability at 4 days, 10 µM [1] |
| --- | --- | --- | --- | --- |
| 4500 nM |  | Cc1cnc(-n2cnc3c(O)c(Cl)cc(Cl)c3c2=O)s1 [Compound 1082] | 94% | 70% |
| 2300 nM |  | Cn1c(-n2cnc3c(O)c(Cl)cc(Cl)c3c2=O)nc2ccccc21 [Compound 1083] |  | 97% |
| 860 nM |  | O=c1c2c(Cl)cc(Cl)c(O)c2ncn1-c1cccnc1 [Compound 1092] | 95% | 81% |
| 390 nM |  | COc1ccc(-n2cnc3c(O)c(Cl)cc(Cl)c3c2=O)cn1 [Compound 1093] | 122% | 13% |
| 440 nM |  | Br.Cc1cccnc1Cn1cnc2c(O)c(Cl)cc(Cl)c2c1=O [Compound 1098] | 99% | 88% |
| 690 nM |  | Nn1cnc2c(O)c(Cl)cc(Cl)c2c1=O [Compound 1099, 3-Amino-5,7-dichloro-8-hydroxy-3H-quinazolin-4-one hydrobromide] |  |  |
| 730 nM |  | CCn1cnc2c(O)c(Cl)cc(Cl)c2c1=O [Compound 1115] | 101% | 73% |
